In US10206394B2, “Herbicidal compounds” (Syngenta Participations AG, priority 2014, dated 2019):
Read-outs that look alike come from different tables or passages of the source.

What was measured:
Assay in all cases: Glasshouse assay for herbicidal activity (pre- and post-emergence), percentage phytotoxicity
Type in all cases: in vivo
[1] = test system: Alopecurus myosuroides (ALOMY); settings: Alopecurus myosuroides
Procedure: (§1) Test—Glasshouse Assay for Herbicidal Activity
(§2) Seeds of a variety of monocotyledonous and dicotyledonous test plants are sown in standard soil in pots. The plants are cultivated for one day (for pre-emergence (PRE)) or for about 12 days (for post-emergence (POST)) under controlled conditions in a glasshouse (warm climate species at 24/18° C., cool climate species at 20/16° C., both at day/night; 16 hours light; 65% humidity).
(§3) The test plants are then grown on, in a glasshouse (greenhouse) under controlled conditions (warm climate species at 24/18° C., cool climate species at 20/16° C., both at day/night; 16 hours light; 65% humidity) and are watered twice daily. 15 days after application of the test herbicide (15 DAA) (for post-emergence), and 20 days after application of the test herbicide (20 DAA) (for pre-emergence), the test plants are evaluated visually, and an assessed percentage phytotoxicity score is given for each herbicidal application on each plant species (with 100%=total damage to plant; 0%=no damage to plant).
(§4) The plant species tested are as follows: Alopecurus myosuroides (ALOMY), Avena fatua (AVEFA), Lolium perenne (LOLPE), Echinochloa crus-galli (ECHCG).

Avena fatua (AVEFA) = settings: Avena fatua
Procedure: as §1, §2, §3, §4

[2] = test system: Echinochloa crus-galli (ECHCG); settings: Echinochloa crus-galli
Procedure: as §1, §2, §3, §4

Lolium perenne (LOLPE) = settings: Lolium perenne
Procedure: as §1, §2, §3, §4

[3] = post-emergence, 360 h, Rate 250 g/ha, post-emergence, visual assessment 15 DAA, 100%=total damage, 0%=no damage, read-out: Post-emergence herbicidal activity (percentage phytotoxicity) ALOMY POST
[4] = pre-emergence, 480 h, Rate 250 g/ha, pre-emergence, visual assessment 20 DAA, 100%=total damage, 0%=no damage, read-out: Pre-emergence herbicidal activity (percentage phytotoxicity) ALOMY PRE
[5] = post-emergence, 360 h, Rate 250 g/ha, post-emergence, visual assessment 15 DAA, 100%=total damage, 0%=no damage, read-out: Post-emergence herbicidal activity (percentage phytotoxicity) AVEFA POST
[6] = pre-emergence, 480 h, Rate 250 g/ha, pre-emergence, visual assessment 20 DAA, 100%=total damage, 0%=no damage, read-out: Pre-emergence herbicidal activity (percentage phytotoxicity) AVEFA PRE
[7] = post-emergence, 360 h, Rate 250 g/ha, post-emergence, visual assessment 15 DAA, 100%=total damage, 0%=no damage, read-out: Post-emergence herbicidal activity (percentage phytotoxicity) ECHCG POST
[8] = pre-emergence, 480 h, Rate 250 g/ha, pre-emergence, visual assessment 20 DAA, 100%=total damage, 0%=no damage, read-out: Pre-emergence herbicidal activity (percentage phytotoxicity) ECHCG PRE
[9] = post-emergence, 360 h, Rate 250 g/ha, post-emergence, visual assessment 15 DAA, 100%=total damage, 0%=no damage, read-out: Post-emergence herbicidal activity (percentage phytotoxicity) LOLPE POST
[10] = pre-emergence, 480 h, Rate 250 g/ha, pre-emergence, visual assessment 20 DAA, 100%=total damage, 0%=no damage, read-out: Pre-emergence herbicidal activity (percentage phytotoxicity) LOLPE PRE

## C=CC(C)NC(=O)CC1CC(=O)C(c2c(C)cc(Br)cc2C)C1=O (stereo not shown) [Compound B301]
[1]; post-emergence, 360 h, POST-emergence, rate 250 g/ha, visual score 15 DAA (100%=total damage, 0%=no damage), read-out: Post-emergence herbicidal activity (percentage phytotoxicity) ALOMY POST
  pest or weed control at 250 g/ha: 70%
[1]; pre-emergence, 480 h, PRE-emergence, rate 250 g/ha, visual score 20 DAA (100%=total damage, 0%=no damage), read-out: Pre-emergence herbicidal activity (percentage phytotoxicity) ALOMY PRE
  pest or weed control at 250 g/ha: 80%
Avena fatua (AVEFA); post-emergence, 360 h, POST-emergence, rate 250 g/ha, visual score 15 DAA (100%=total damage, 0%=no damage), read-out: Post-emergence herbicidal activity (percentage phytotoxicity) AVEFA POST
  pest or weed control at 250 g/ha: 70%
Avena fatua (AVEFA); pre-emergence, 480 h, PRE-emergence, rate 250 g/ha, visual score 20 DAA (100%=total damage, 0%=no damage), read-out: Pre-emergence herbicidal activity (percentage phytotoxicity) AVEFA PRE
  pest or weed control at 250 g/ha: 50%
[2]; post-emergence, 360 h, POST-emergence, rate 250 g/ha, visual score 15 DAA (100%=total damage, 0%=no damage), read-out: Post-emergence herbicidal activity (percentage phytotoxicity) ECHCG POST
  pest or weed control at 250 g/ha: 70%
[2]; pre-emergence, 480 h, PRE-emergence, rate 250 g/ha, visual score 20 DAA (100%=total damage, 0%=no damage), read-out: Pre-emergence herbicidal activity (percentage phytotoxicity) ECHCG PRE
  pest or weed control at 250 g/ha: 60%
Lolium perenne (LOLPE); post-emergence, 360 h, POST-emergence, rate 250 g/ha, visual score 15 DAA (100%=total damage, 0%=no damage), read-out: Post-emergence herbicidal activity (percentage phytotoxicity) LOLPE POST
  pest or weed control at 250 g/ha: 50%
Lolium perenne (LOLPE); pre-emergence, 480 h, PRE-emergence, rate 250 g/ha, visual score 20 DAA (100%=total damage, 0%=no damage), read-out: Pre-emergence herbicidal activity (percentage phytotoxicity) LOLPE PRE
  pest or weed control at 250 g/ha: 70%

## Cc1cc(C)c(C2C(=O)CC(CC(=O)NCC(CF)CF)C2=O)c(C)c1 (stereo not shown) [Compound B76]
[1]; post-emergence, 360 h, 250 g/ha, post-emergence, 15 DAA, visual assessment (100%=total damage, 0%=no damage), read-out: Post-emergence herbicidal activity (percentage phytotoxicity) ALOMY POST
  pest or weed control at 250 g/ha: 80%
[1]; pre-emergence, 480 h, 250 g/ha, pre-emergence, 20 DAA, visual assessment (100%=total damage, 0%=no damage), read-out: Pre-emergence herbicidal activity (percentage phytotoxicity) ALOMY PRE
  pest or weed control at 250 g/ha: 90%
Avena fatua (AVEFA); post-emergence, 360 h, 250 g/ha, post-emergence, 15 DAA, visual assessment (100%=total damage, 0%=no damage), read-out: Post-emergence herbicidal activity (percentage phytotoxicity) AVEFA POST
  pest or weed control at 250 g/ha: 80%
Avena fatua (AVEFA); pre-emergence, 480 h, 250 g/ha, pre-emergence, 20 DAA, visual assessment (100%=total damage, 0%=no damage), read-out: Pre-emergence herbicidal activity (percentage phytotoxicity) AVEFA PRE
  pest or weed control at 250 g/ha: 70%
[2]; post-emergence, 360 h, 250 g/ha, post-emergence, 15 DAA, visual assessment (100%=total damage, 0%=no damage), read-out: Post-emergence herbicidal activity (percentage phytotoxicity) ECHCG POST
  pest or weed control at 250 g/ha: 80%
[2]; pre-emergence, 480 h, 250 g/ha, pre-emergence, 20 DAA, visual assessment (100%=total damage, 0%=no damage), read-out: Pre-emergence herbicidal activity (percentage phytotoxicity) ECHCG PRE
  pest or weed control at 250 g/ha: 90%
Lolium perenne (LOLPE); post-emergence, 360 h, 250 g/ha, post-emergence, 15 DAA, visual assessment (100%=total damage, 0%=no damage), read-out: Post-emergence herbicidal activity (percentage phytotoxicity) LOLPE POST
  pest or weed control at 250 g/ha: 80%
Lolium perenne (LOLPE); pre-emergence, 480 h, 250 g/ha, pre-emergence, 20 DAA, visual assessment (100%=total damage, 0%=no damage), read-out: Pre-emergence herbicidal activity (percentage phytotoxicity) LOLPE PRE
  pest or weed control at 250 g/ha: 90%

## Cc1cc(-c2ccc(F)cn2)cc(C)c1C1C(=O)CC(CC(=O)NC(C)C)C1=O (stereo not shown) [Compound B385]
[1]; [3]
  pest or weed control at 250 g/ha: 100%
[1]; [4]
  pest or weed control at 250 g/ha: 100%
Avena fatua (AVEFA); [5]
  pest or weed control at 250 g/ha: 100%
Avena fatua (AVEFA); [6]
  pest or weed control at 250 g/ha: 100%
[2]; [7]
  pest or weed control at 250 g/ha: 100%
[2]; [8]
  pest or weed control at 250 g/ha: 100%
Lolium perenne (LOLPE); [9]
  pest or weed control at 250 g/ha: 100%
Lolium perenne (LOLPE); [10]
  pest or weed control at 250 g/ha: 100%

## Cc1cc(C)c(C2=C(OC(=O)C(C)(C)C)CC(CC(=O)N(C(=O)C(C)(C)C)C3COC3)C2=O)c(C)c1 (stereo not shown) [Compound P12]
[1]; [3]
  pest or weed control at 250 g/ha: 80%
[1]; [4]
  pest or weed control at 250 g/ha: 20%
Avena fatua (AVEFA); [5]
  pest or weed control at 250 g/ha: 60%
Avena fatua (AVEFA); [6]
  pest or weed control at 250 g/ha: 0%
[2]; [7]
  pest or weed control at 250 g/ha: 60%
[2]; [8]
  pest or weed control at 250 g/ha: 70%
Lolium perenne (LOLPE); [9]
  pest or weed control at 250 g/ha: 80%
Lolium perenne (LOLPE); [10]
  pest or weed control at 250 g/ha: 60%

## Cc1ccc(-c2cc(C)c(C3C(=O)CC(CC(=O)NCc4cccc(C(F)(F)F)c4)C3=O)c(C)c2)nc1 (stereo not shown) [Compound A158]
[1]; post-emergence, 360 h, Rate 250 g/ha, post-emergence, assessed visually 15 DAA, 100%=total damage, 0%=no damage, read-out: Post-emergence herbicidal activity (percentage phytotoxicity) ALOMY POST
  pest or weed control at 250 g/ha: 70%
[1]; pre-emergence, 480 h, Rate 250 g/ha, pre-emergence, assessed visually 20 DAA, 100%=total damage, 0%=no damage, read-out: Pre-emergence herbicidal activity (percentage phytotoxicity) ALOMY PRE
  pest or weed control at 250 g/ha: 20%
Avena fatua (AVEFA); post-emergence, 360 h, Rate 250 g/ha, post-emergence, assessed visually 15 DAA, 100%=total damage, 0%=no damage, read-out: Post-emergence herbicidal activity (percentage phytotoxicity) AVEFA POST
  pest or weed control at 250 g/ha: 70%
Avena fatua (AVEFA); pre-emergence, 480 h, Rate 250 g/ha, pre-emergence, assessed visually 20 DAA, 100%=total damage, 0%=no damage, read-out: Pre-emergence herbicidal activity (percentage phytotoxicity) AVEFA PRE
  pest or weed control at 250 g/ha: 20%
[2]; post-emergence, 360 h, Rate 250 g/ha, post-emergence, assessed visually 15 DAA, 100%=total damage, 0%=no damage, read-out: Post-emergence herbicidal activity (percentage phytotoxicity) ECHCG POST
  pest or weed control at 250 g/ha: 90%
[2]; pre-emergence, 480 h, Rate 250 g/ha, pre-emergence, assessed visually 20 DAA, 100%=total damage, 0%=no damage, read-out: Pre-emergence herbicidal activity (percentage phytotoxicity) ECHCG PRE
  pest or weed control at 250 g/ha: 80%
Lolium perenne (LOLPE); post-emergence, 360 h, Rate 250 g/ha, post-emergence, assessed visually 15 DAA, 100%=total damage, 0%=no damage, read-out: Post-emergence herbicidal activity (percentage phytotoxicity) LOLPE POST
  pest or weed control at 250 g/ha: 80%
Lolium perenne (LOLPE); pre-emergence, 480 h, Rate 250 g/ha, pre-emergence, assessed visually 20 DAA, 100%=total damage, 0%=no damage, read-out: Pre-emergence herbicidal activity (percentage phytotoxicity) LOLPE PRE
  pest or weed control at 250 g/ha: 60%
